Assay results: PubChem BioAssay (NCI)
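Cultured in 96-well plates, cells were exposed to test compound for 48 hours across five concentrations. GI50 is the concentration that inhibits growth by half. TGI is the concentration that stops growth completely.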

How the values were obtained:
Assay in all cases: NCI-60 cell line screen, 48 h
[1] = system: SK-MEL-2 melanoma
[2] = system: M14 melanoma
[3] = system: SK-MEL-5 melanoma
[4] = system: KM12 colon
[5] = system: MCF7 breast
[6] = system: NCI-H226 lung
[7] = system: NCI-H522 lung
[8] = system: SNB-75 CNS
[9] = system: SNB-19 CNS
[10] = system: MOLT-4 leukemia
[11] = system: SF-295 CNS
[12] = system: HCC-2998 colon
[13] = system: HS 578T breast
[14] = system: NCI-H460 lung
[15] = system: OVCAR-4 ovarian
[16] = system: A498 renal
[17] = system: A549 NSCLC
[18] = system: 786-0 renal
[19] = system: SK-MEL-28 melanoma
[20] = system: BT-549 breast
[21] = system: SW-620 colon
[22] = system: PC-3 prostate
[23] = system: SK-OV-3 ovarian
[24] = system: COLO 205 colon
[25] = system: HCT-116 colon
[26] = system: OVCAR-5 ovarian
[27] = system: NCI-H23 lung
[28] = system: HT29 colon
[29] = system: HOP-92 NSCLC
[30] = system: SF-539 CNS
[31] = system: HCT-15 colon
[32] = system: CCRF-CEM leukemia
[33] = system: SR leukemia
[34] = system: HL-60(TB) leukemia
[35] = system: K-562 leukemia
[36] = system: ACHN renal
[37] = system: TK-10 renal
[38] = system: UACC-257 melanoma
[39] = system: NCI/ADR-RES ovarian
[40] = system: HOP-62 NSCLC
[41] = system: CAKI-1 renal
[42] = system: UO-31 renal
[43] = system: RPMI-8226 leukemia
[44] = system: T-47D breast
[45] = system: RXF 393 renal
[46] = system: SF-268 CNS
[47] = system: U251 CNS
[48] = system: LOX IMVI melanoma
[49] = system: DU-145 prostate
[50] = system: UACC-62 melanoma
[51] = system: OVCAR-3 ovarian
[52] = system: MDA-MB-231 breast
[53] = system: MDA-MB-435
[54] = system: OVCAR-8 ovarian
[55] = system: IGROV1 ovarian
[56] = system: MALME-3M melanoma

COc1cccc2c1O/C(=C\c1ncc([N+](=O)[O-])n1C)C2=O
GI50 [1]: 242 nM | TGI [1]: 607 nM | GI50 [2]: 218 nM | TGI [2]: 719 nM | GI50 [3]: 186 nM | TGI [3]: 502 nM | GI50 [4]: 348 nM | TGI [4]: 1550 nM | GI50 [5]: 467 nM | TGI [5]: 5040 nM | GI50 [6]: 1470 nM | TGI [6]: 4810 nM | GI50 [7]: 187 nM | TGI [7]: 474 nM | GI50 [8]: 1390 nM | TGI [8]: 3970 nM | GI50 [9]: 1300 nM | TGI [9]: 5750 nM | GI50 [10]: 68.9 nM | TGI [10]: 1360 nM | GI50 [11]: 1270 nM | TGI [11]: 4490 nM | GI50 [12]: 1860 nM | TGI [12]: 7570 nM | GI50 [13]: 1040 nM | TGI [13]: > 21000 nM | GI50 [14]: 203 nM | TGI [14]: 603 nM | GI50 [15]: 1920 nM | TGI [15]: 6230 nM | GI50 [16]: 1390 nM | TGI [16]: 3420 nM | GI50 [17]: 509 nM | TGI [17]: 3450 nM | GI50 [18]: 375 nM | TGI [18]: 3890 nM | GI50 [19]: 239 nM | TGI [19]: 607 nM | GI50 [20]: 413 nM | TGI [20]: 2650 nM | GI50 [21]: 74.7 nM | TGI [21]: 1700 nM | GI50 [22]: 662 nM | GI50 [23]: 911 nM | TGI [23]: 4210 nM | GI50 [24]: 254 nM | TGI [24]: 1100 nM | GI50 [25]: 82.5 nM | TGI [25]: 691 nM | GI50 [26]: 1700 nM | TGI [26]: 5820 nM | GI50 [27]: 270 nM | TGI [27]: 1310 nM | GI50 [28]: 154 nM | TGI [28]: 599 nM | GI50 [29]: 343 nM | TGI [29]: 1680 nM | GI50 [30]: 1320 nM | TGI [30]: 3510 nM | GI50 [31]: 128 nM | TGI [31]: 404 nM | GI50 [32]: 53.7 nM | TGI [32]: 384 nM | GI50 [33]: < 16.5 nM | TGI [33]: 165 nM | GI50 [34]: 234 nM | TGI [34]: 1350 nM | GI50 [35]: 422 nM | TGI [35]: 6220 nM | GI50 [36]: 82.6 nM | TGI [36]: 332 nM | GI50 [37]: 870 nM | GI50 [38]: 531 nM | TGI [38]: 4990 nM | GI50 [39]: 277 nM | TGI [39]: 2900 nM | GI50 [40]: 716 nM | TGI [40]: 2250 nM | GI50 [41]: 200 nM | TGI [41]: 579 nM | GI50 [42]: 173 nM | TGI [42]: 622 nM | GI50 [43]: 949 nM | TGI [43]: 4110 nM | GI50 [44]: 8250 nM | TGI [44]: 52900 nM | GI50 [45]: 229 nM | TGI [45]: 648 nM | GI50 [46]: 221 nM | TGI [46]: 816 nM | GI50 [47]: 745 nM | TGI [47]: 3190 nM | GI50 [48]: 116 nM | TGI [48]: 414 nM | GI50 [49]: 266 nM | TGI [49]: 809 nM | GI50 [50]: 569 nM | TGI [50]: 1670 nM | GI50 [51]: 236 nM | TGI [51]: 632 nM | GI50 [52]: 310 nM | TGI [52]: 1570 nM | GI50 [53]: 133 nM | TGI [53]: 290 nM | GI50 [54]: 167 nM | GI50 [55]: 303 nM | TGI [55]: 2460 nM | GI50 [56]: 224 nM | TGI [56]: 563 nM
